Source: ChEMBL document CHEMBL3608238, “Coronaridine, an iboga type alkaloid from Tabernaemontana divaricata, inhibits the Wnt signaling pathway by decreasing β-catenin mRNA expression” (Bioorg Med Chem Lett, 2015)
The source made the active and inactive calls. No cut-off for these calls is given here.

Assays:
HEK-293T [1] = test: Inhibition of Wnt/beta-catenin in HEK293T cells assessed as inhibition of TCF/beta catenin transcription at 5 to 20 uM after 24 hrs by SuperFOPFlash reporter gene assay; format: cell-based; settings: Homo sapiens
HCT-116 = test: Cytotoxicity against Wnt-dependent human HCT116 cells assessed as cell viability after 24 hrs by fluorescence assay; format: functional, cell-based; settings: HCT-116, 24 h
HEK-293T [2] = test: Cytotoxicity against HEK293T cells assessed as cell viability after 24 hrs by fluorescence assay; format: cell-based; settings: Homo sapiens
RKO = test: Cytotoxicity against Wnt-independent human RKO cells assessed as cell viability after 24 hrs by fluorescence assay; format: cell-based
[3] = Cytotoxicity against Wnt-dependent human DLD1 cells assessed as cell viability after 24 hrs by fluorescence assay; format: functional, cell-based; settings: DLD-1, 24 h
HEK293 = test: Cytotoxicity against HEK293 cells assessed as cell viability after 24 hrs by fluorescence assay; format: cell-based; settings: Homo sapiens, HEK293, 24 h
SW480 [4] = test: Cytotoxicity against Wnt-dependent human SW480 cells assessed as cell viability after 24 hrs by fluorescence assay; format: functional, cell-based; settings: SW480, 24 h
STF/293 = test: (§1) Inhibition of Wnt/beta-catenin in human STF/293 cells assessed as inhibition of TCF/beta catenin transcription after 24 hrs by SuperTOPFlash reporter gene assay; format: cell-based
[5] = as §1; format: cell-based; settings: STF/293, 24 h
SW480 [6] = test: Effect on GSK3beta expression in human SW480 cells at 10 to 40 uM after 24 hrs by Western blot analysis; format: functional, cell-based
SW480 [7] = test: Effect on CK1alpha expression in human SW480 cells at 10 to 40 uM after 24 hrs by Western blot analysis; format: functional, cell-based
SW480 [8] = test: Inhibition of Wnt/beta-catenin in human SW480 cells assessed as beta-catenin phosphorylation at Ser33/Ser37/Thr40 at 10 to 40 uM after 24 hrs by Western blot analysis; format: cell-based
SW480 [9] = test: Inhibition of Wnt/beta-catenin in human SW480 cells assessed as decrease in nuclear beta-catenin level at 10 to 40 uM after 24 hrs by Western blot analysis; format: cell-based
SW480 [10] = test: Inhibition of Wnt/beta-catenin in proteasome inhibitor MG132 pretreated human SW480 cells assessed as decrease in beta-catenin level at 40 uM co-treated with MG132 for 12 hrs by Western blot analysis; format: cell-based
SW480 [11] = test: Inhibition of Wnt/beta-catenin in human SW480 cells assessed as decrease in beta-catenin mRNA level at 40 uM by real time RT-PCR analysis; format: cell-based
SW480 [12] = test: Inhibition of Wnt/beta-catenin in human SW480 cells assessed as decrease in cytosolic beta-catenin level at 10 to 40 uM after 24 hrs by Western blot analysis; format: cell-based
SW480 [13] = test: Inhibition of Wnt/beta-catenin in human SW480 cells assessed as beta-catenin phosphorylation at Ser45 at 10 to 40 uM after 24 hrs by Western blot analysis; format: cell-based
HEK-293T [14] = test: Inhibition of Wnt/beta-catenin in HEK293T cells assessed as inhibition of TCF/beta catenin transcription at 10 to 40 uM after 24 hrs by SuperFOPFlash reporter gene assay; format: cell-based; settings: Homo sapiens

SMILES	inhibition (HEK-293T [1])	IC50 (HCT-116) [µM]	IC50 (HEK-293T [2]) [µM]	IC50 (RKO) [µM]	IC50 [3] [µM]	IC50 (HEK293) [µM]	IC50 (SW480 [4]) [µM]	inhibition (STF/293)	IC50 [5] [µM]	Activity (SW480 [6])	Activity (SW480 [7])	inhibition (SW480 [8])	inhibition (SW480 [9])	inhibition (SW480 [10])	inhibition (SW480 [11])	inhibition (SW480 [12])	inhibition (SW480 [13])	inhibition (HEK-293T [14])
CC[C@H]1C[C@@H]2CN3CC[C@]4(O)C(=Nc5ccccc54)[C@](C(=O)OC)(C2)[C@H]13 [CORONARIDINE HYDROXYINDOLENINE]	Active	> 40	> 40	> 40	> 40	> 40	> 40	Dose-dependent effect	7.3	–	–	–	–	–	–	–	–	–
CC[C@H]1C[C@@H]2CN3CCc4c([nH]c5ccccc45)[C@](C(=O)OC)(C2)[C@H]13 [CORONARIDINE]	Active	11.6	> 40	> 40	24.4	31.7	10.4	Dose-dependent effect	5.8	inactive	inactive	inactive	Active	Active	Active	Active	inactive	–
CC[C@H]1C[C@@H]2CN3CCc4c([nH]c5cc(OC)ccc45)[C@](C(=O)OC)(C2)[C@H]13 [ISOVOACANGINE]	Active	24.4	> 40	> 40	> 40	35.6	11.2	Dose-dependent effect	6	–	–	–	–	–	–	–	–	–
CC[C@H]1C[C@@H]2CN3CCc4c([nH]c5ccc(OC)cc45)[C@](C(=O)OC)(C2)[C@H]13 [VOACANGINE]	–	> 40	> 40	> 40	> 40	> 40	> 40	Dose-dependent effect	11.5	–	–	–	–	–	–	–	–	inactive
